# Measured values from publication PMC11117660, “Novel Angiotensin-Converting Enzyme-Inhibitory Peptides Obtained from Trichiurus lepturus: Preparation, Identification and Potential Antihypertensive Mechanism” (Biomolecules, 2024).
# Read-outs that look alike come from different tables or passages of the source. Where no end group is shown, it is not given here.
# Experiments:
# [1] = target: T1, Angiotensin I-converting enzyme (ACE) (Oryctolagus cuniculus, UniProt P12822); experiment: ACE-inhibitory activity (FAPGG substrate, absorbance at 340 nm); assay type: biochemical, rabbit; conditions: synthetic peptides, Figure 7; experiments in triplicate
# T1 construct: sourced from rabbit lungs; purchased Sigma-Aldrich (St. Louis, MO, USA); host or cells: rabbit lung tissue
# T1 sequence (P12822 34-1310): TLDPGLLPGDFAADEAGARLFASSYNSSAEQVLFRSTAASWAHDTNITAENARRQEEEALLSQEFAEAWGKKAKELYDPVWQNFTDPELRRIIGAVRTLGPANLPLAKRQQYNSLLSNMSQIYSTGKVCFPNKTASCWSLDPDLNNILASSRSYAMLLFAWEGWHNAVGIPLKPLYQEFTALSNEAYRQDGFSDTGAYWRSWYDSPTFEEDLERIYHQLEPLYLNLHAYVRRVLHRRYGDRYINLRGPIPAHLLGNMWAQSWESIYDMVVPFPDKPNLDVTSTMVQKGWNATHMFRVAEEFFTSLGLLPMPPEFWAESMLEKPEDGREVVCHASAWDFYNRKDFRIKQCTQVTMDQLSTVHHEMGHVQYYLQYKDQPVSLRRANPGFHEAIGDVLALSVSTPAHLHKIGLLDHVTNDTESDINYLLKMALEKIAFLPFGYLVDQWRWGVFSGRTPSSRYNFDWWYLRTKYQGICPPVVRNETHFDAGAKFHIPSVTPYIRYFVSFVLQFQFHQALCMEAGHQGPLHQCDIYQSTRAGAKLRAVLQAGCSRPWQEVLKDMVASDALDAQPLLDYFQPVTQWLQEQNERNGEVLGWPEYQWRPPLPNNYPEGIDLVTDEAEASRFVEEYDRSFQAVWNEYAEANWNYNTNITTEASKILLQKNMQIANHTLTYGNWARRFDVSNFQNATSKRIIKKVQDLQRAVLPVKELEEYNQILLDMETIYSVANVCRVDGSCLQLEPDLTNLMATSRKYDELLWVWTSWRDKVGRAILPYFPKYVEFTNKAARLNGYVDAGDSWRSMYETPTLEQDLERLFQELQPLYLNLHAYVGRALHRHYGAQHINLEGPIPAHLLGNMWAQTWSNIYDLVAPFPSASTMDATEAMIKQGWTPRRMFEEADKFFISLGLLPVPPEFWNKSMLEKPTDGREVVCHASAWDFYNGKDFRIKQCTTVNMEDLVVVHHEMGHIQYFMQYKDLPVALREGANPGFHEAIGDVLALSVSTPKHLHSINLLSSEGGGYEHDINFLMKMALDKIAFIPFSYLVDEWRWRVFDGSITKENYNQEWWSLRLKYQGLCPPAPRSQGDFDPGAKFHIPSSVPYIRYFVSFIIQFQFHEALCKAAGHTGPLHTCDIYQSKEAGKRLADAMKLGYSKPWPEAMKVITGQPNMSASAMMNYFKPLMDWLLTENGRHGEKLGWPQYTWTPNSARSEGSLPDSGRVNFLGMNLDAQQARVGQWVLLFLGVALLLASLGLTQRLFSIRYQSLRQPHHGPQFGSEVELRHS
# Description: ACE-inhibitory activity was assessed by following the experimental procedure reported by Dou et al., with slight modifications. […] The negative control group was substituted with 100 μL of borate-buffered HEPES. The initial absorbance values of a1 and b1 for both the blank and sample groups were then measured at 340 nm (Thermo Fisher, Waltham, MA, USA). The sample group was then incubated at 37 °C for 30 min, and subsequently, the absorbance values were read again at 340 nm (a2, b2). […] The initial absorbance of the blank: a1-blank; b1-sample. a2: the absorbance values after incubation at 37 °C for 30 min. a2: blank; b2: samples.
# [2] = target: T1, Angiotensin I-converting enzyme (ACE); experiment: In vitro simulated oral gastrointestinal digestion, ACE-inhibition read-out; assay type: biochemical, rabbit; conditions: initially (before digestion), captopril as reference, Figure 5b
# Description: ACE-inhibitory activity was assessed by following the experimental procedure reported by Dou et al., with slight modifications. A solution of borate-buffered HEPES (50 mM, pH 8.3) was dispensed into a 96-well plate, followed by the addition of samples (100 µL), ACE (50 µL, 0.1 U/mL, prepared from 50 mM borate buffer pH 8.3), and FAPGG(N-[3-(2-Furyl)acryloyl]-Phe-Gly-Gly) (50 µL, 1 mM) into each well. The negative control group was substituted with 100 µL of borate-buffered HEPES. The initial absorbance values of a1 and b1 for both the blank and sample groups were then measured at 340 nm (Thermo Fisher, Waltham, MA, USA). The sample group was then incubated at 37 °C for 30 min, and subsequently, the absorbance values were read again at 340 nm (a2, b2). (1) ACE inhibition rate=A−B/A×100% where A = a1 − a2, and B = b1 − b2. The initial absorbance of the blank: a1—blank; b1—sample. a2: the absorbance values after incubation at 37 °C for 30 min. a2: blank; b2: samples.
# The in vitro digestion process was utilized. A quantity of 1 mg of the sample was dissolved in 1 mL of water and preheated in a water bath at 37 °C. Then, it was mixed with 1 mL of artificial saliva whose pH was adjusted to pH 6.8. The mixture was then agitated at 100 rpm for 1 min at 37 °C. Subsequently, the pH was adjusted to pH 2.0 using 1 M HCl and added in equal amounts to the simulated gastric digest. […]
# [3] = test system: ACE; conditions: cited from earlier work
# Description: According to the literature, ACE-inhibitory peptides with an IC50 between about 0.32 and 1000 μM have the potential to lower blood pressure. […] We therefore hypothesized that the peptides from FAGDDAPR, QGPIGPR, and GPTGPAGPR may have antihypertensive effects. […] Subsequently, peptides from the ribbonfish hydrolysates were isolated and identified through a combination of filtration and gel filtration chromatography techniques. […] Similarly, Dong et al. used alkaline protease to hydrolyze tilapi ...
# [4] = literature examples of antihypertensive peptides, the reference is not clearly printed, read-out: IC50
substance,measurement,setting,value
FAGDDAPR [FAGDDAPR],IC50,[1],263 µM
same,ACE-inhibitory activity lower than that of captopril,[2],31.17%
FRVW,IC50,"[3]; from Pinctada fucata, read-out: ACE-inhibitory IC50",18.3 µM
GPTGPAGPR [GPTGPAGPR],IC50,[1],168 µM
LEPWR,IC50,"[3]; from Pacific saury neutral protease hydrolysate, read-out: ACE-inhibitory IC50",99.5 µM
QGPIGPR [QGPIGPR],IC50,[1],81.1 µM
VGINYW,IC50,[3]; [4],15.1 µM
VGLFPSRSF [literature oligopeptide from tilapia (Oreochromis niloticus) skin hydrolysate],IC50,"[3]; from tilapia skin alkaline protease hydrolysate, read-out: ACE-inhibitory IC50",61.4 µM
WAGP,IC50,[3]; [4],141 µM
